The target in assay [1] is T1, Bifunctional arginine demethylase and lysyl-hydroxylase JMJD6 (Homo sapiens, UniProt Q6NYC1). Kind of assay: Inhibition of JMJD6 (unknown origin) by Succinate-Glo assay.
Assay [2] concerns the target T1, Bifunctional arginine demethylase and lysyl-hydroxylase JMJD6. Kind of assay: Inhibition of JMJD6 (unknown origin) at 100 uM by Succinate-Glo assay.
Assay [3] addresses T2, Lysine-specific demethylase 3B (Homo sapiens, UniProt Q7LBC6). The experiment in a line: Inhibition of KDM3B (unknown origin) by Succinate-Glo assay.
Assay [4] deals with T3, Lysine-specific demethylase 4D (Homo sapiens) (UniProt Q6B0I6).
T3 sequence (whole entry): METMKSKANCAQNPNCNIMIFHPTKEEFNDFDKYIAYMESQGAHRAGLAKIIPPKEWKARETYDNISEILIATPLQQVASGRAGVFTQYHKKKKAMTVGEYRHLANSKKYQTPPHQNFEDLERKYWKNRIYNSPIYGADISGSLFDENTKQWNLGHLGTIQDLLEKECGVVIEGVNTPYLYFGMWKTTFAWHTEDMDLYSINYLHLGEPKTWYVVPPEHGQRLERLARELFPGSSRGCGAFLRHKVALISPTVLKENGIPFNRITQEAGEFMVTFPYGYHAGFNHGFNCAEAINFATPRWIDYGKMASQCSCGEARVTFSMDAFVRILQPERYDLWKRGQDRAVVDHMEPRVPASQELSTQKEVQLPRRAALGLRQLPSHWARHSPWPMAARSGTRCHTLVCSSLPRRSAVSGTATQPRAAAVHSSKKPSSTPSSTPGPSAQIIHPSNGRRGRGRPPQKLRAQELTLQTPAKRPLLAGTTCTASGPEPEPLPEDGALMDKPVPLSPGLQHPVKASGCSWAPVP
Kind of assay: Binding affinity to KDM4D (unknown origin) by differential scanning fluorimetry.

Assay [5] addresses T4, RNA demethylase ALKBH5 (Homo sapiens, UniProt Q6P6C2). The experiment in a line: Inhibition of ALKBH5 (unknown origin) by Succinate-Glo assay.
Target sequence in this assay (Q6P6C2 whole entry): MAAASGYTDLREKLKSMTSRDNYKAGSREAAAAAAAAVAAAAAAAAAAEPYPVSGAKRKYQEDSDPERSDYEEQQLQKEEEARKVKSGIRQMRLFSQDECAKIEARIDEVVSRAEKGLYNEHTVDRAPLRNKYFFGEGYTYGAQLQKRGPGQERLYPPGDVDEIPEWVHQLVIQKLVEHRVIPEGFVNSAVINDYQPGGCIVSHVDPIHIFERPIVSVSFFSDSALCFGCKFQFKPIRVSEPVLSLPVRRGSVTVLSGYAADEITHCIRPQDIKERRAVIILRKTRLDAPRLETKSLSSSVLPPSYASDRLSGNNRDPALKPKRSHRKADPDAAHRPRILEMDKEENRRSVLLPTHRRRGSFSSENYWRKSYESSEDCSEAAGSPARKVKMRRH
For assay [6], the target named is T1, Bifunctional arginine demethylase and lysyl-hydroxylase JMJD6. The experiment in a line: Binding affinity to JMJD6 (unknown origin) assessed as thermal stability of the protein by measuring change in melting temperature by differential scanning fluorimetry. On the technique in general: In DSF a fluorescence change marks the thermal transition of the protein.

Assay [7] addresses T5, Lysine-specific demethylase 5A (Homo sapiens, UniProt P29375). Kind of assay: Binding affinity to KDM5A (unknown origin) by differential scanning fluorimetry.
Assay [8] has as its target T1, Bifunctional arginine demethylase and lysyl-hydroxylase JMJD6. Kind of assay: Binding affinity to JMJD6 in human HeLa cells assessed as inhibition of temperature-dependent protein degradation by CETSA. In kind it is cell-based.
Assay [9] has as its target T6, Bifunctional peptidase and (3S)-lysyl hydroxylase JMJD7 (Homo sapiens, UniProt P0C870). The experiment in a line: Binding affinity to JMJD7 (unknown origin) by differential scanning fluorimetry.
In assay [10] the target is T2, Lysine-specific demethylase 3B. The experiment in a line: Binding affinity to KDM3B (unknown origin) by differential scanning fluorimetry.
The target in assay [11] is T5, Lysine-specific demethylase 5A. The experiment in a line: Inhibition of KDM5A (unknown origin) by AlphalLISA assay.
The target in assay [12] is T4, RNA demethylase ALKBH5. Kind of assay: Binding affinity to ALKBH5 (unknown origin) by differential scanning fluorimetry.
Target sequence in this assay (Q6P6C2 2-394 limits assumed): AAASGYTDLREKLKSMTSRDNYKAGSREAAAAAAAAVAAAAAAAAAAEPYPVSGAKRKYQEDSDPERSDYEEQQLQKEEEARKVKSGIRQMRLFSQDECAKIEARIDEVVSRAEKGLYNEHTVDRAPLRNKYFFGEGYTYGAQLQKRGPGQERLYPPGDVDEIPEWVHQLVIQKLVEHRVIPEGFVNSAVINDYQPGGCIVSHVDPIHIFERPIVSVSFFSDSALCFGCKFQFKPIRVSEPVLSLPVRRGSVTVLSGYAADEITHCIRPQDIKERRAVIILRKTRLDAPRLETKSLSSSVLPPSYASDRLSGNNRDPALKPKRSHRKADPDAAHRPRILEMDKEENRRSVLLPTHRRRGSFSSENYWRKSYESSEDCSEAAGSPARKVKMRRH
In assay [13] the target is T7, Lysine-specific demethylase 4D (Homo sapiens, UniProt Q6B0I6).
T7 sequence (Q6B0I6 whole entry): T3 sequence (whole entry)
The experiment in a line: Inhibition of KDM4D (unknown origin) by Succinate-Glo assay.

The target of assay [14] is T6, Bifunctional peptidase and (3S)-lysyl hydroxylase JMJD7. Kind of assay: Inhibition of JMJD7 (unknown origin) by Succinate-Glo assay.
Assay [15] deals with T1, Bifunctional arginine demethylase and lysyl-hydroxylase JMJD6. The experiment in a line: Inhibition of JMJD6 (unknown origin).

Calls of active or inactive are those of the source. The rule behind the calls is not given here.

Usually IC50 stands for the point on the concentration scale where inhibition reaches its midpoint. In general, inhibition refers to the percentage by which the read-out fell short of the control. One may read the ΔTm as the shift of the melting midpoint relative to a reference.

T6 sequence (P0C870 whole entry): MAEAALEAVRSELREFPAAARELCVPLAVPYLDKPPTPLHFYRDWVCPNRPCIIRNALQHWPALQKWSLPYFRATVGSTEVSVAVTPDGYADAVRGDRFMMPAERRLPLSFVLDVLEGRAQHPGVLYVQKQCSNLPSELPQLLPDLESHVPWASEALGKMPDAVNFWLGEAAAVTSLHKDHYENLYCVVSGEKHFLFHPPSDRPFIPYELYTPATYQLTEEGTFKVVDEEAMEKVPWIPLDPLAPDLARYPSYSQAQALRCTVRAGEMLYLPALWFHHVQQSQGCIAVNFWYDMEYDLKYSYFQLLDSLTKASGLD
T2 sequence (Q7LBC6 whole entry): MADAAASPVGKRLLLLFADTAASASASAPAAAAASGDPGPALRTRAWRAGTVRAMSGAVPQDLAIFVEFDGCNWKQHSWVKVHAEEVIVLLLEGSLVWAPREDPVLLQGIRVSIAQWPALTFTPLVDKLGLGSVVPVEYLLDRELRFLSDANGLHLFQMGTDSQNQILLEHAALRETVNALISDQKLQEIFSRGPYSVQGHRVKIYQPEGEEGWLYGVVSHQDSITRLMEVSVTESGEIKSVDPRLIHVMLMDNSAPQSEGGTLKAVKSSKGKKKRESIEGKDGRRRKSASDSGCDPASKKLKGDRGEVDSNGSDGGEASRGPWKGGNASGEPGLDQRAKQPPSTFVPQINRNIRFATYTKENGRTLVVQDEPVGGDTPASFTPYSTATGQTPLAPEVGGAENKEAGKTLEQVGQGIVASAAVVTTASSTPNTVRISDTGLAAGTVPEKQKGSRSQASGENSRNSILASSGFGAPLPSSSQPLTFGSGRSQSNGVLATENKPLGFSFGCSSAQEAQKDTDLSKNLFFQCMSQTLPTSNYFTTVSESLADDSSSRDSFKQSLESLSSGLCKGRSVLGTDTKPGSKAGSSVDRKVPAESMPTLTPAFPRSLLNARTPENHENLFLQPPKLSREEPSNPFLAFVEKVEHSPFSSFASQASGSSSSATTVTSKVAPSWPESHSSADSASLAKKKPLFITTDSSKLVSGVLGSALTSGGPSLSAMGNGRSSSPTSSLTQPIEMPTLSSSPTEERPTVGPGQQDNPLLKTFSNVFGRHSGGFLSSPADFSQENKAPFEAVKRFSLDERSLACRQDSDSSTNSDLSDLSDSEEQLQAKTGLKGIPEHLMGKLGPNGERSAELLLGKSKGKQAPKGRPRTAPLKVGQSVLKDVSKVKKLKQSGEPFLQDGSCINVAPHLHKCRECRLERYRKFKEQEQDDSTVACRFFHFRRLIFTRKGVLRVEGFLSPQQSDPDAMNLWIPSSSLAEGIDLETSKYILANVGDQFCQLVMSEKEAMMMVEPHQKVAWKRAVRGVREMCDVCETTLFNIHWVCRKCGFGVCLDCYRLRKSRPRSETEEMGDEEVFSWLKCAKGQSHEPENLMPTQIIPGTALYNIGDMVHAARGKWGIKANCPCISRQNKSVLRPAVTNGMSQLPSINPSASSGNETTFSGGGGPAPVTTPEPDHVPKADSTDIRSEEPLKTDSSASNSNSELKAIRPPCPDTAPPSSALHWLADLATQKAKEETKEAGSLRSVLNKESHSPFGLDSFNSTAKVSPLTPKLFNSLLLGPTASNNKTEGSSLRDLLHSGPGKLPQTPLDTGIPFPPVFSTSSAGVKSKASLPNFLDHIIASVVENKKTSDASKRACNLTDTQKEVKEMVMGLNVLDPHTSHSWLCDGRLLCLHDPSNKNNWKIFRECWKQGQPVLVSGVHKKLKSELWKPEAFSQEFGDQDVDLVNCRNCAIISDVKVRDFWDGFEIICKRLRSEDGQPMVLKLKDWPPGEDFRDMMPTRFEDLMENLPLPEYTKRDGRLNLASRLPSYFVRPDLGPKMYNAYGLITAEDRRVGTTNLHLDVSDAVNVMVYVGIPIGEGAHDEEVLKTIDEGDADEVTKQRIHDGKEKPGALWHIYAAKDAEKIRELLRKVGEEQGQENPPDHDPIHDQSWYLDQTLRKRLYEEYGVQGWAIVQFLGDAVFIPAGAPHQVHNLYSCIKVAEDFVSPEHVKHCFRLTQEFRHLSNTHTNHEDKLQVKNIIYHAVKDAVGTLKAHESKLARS
T5 sequence (P29375 whole entry): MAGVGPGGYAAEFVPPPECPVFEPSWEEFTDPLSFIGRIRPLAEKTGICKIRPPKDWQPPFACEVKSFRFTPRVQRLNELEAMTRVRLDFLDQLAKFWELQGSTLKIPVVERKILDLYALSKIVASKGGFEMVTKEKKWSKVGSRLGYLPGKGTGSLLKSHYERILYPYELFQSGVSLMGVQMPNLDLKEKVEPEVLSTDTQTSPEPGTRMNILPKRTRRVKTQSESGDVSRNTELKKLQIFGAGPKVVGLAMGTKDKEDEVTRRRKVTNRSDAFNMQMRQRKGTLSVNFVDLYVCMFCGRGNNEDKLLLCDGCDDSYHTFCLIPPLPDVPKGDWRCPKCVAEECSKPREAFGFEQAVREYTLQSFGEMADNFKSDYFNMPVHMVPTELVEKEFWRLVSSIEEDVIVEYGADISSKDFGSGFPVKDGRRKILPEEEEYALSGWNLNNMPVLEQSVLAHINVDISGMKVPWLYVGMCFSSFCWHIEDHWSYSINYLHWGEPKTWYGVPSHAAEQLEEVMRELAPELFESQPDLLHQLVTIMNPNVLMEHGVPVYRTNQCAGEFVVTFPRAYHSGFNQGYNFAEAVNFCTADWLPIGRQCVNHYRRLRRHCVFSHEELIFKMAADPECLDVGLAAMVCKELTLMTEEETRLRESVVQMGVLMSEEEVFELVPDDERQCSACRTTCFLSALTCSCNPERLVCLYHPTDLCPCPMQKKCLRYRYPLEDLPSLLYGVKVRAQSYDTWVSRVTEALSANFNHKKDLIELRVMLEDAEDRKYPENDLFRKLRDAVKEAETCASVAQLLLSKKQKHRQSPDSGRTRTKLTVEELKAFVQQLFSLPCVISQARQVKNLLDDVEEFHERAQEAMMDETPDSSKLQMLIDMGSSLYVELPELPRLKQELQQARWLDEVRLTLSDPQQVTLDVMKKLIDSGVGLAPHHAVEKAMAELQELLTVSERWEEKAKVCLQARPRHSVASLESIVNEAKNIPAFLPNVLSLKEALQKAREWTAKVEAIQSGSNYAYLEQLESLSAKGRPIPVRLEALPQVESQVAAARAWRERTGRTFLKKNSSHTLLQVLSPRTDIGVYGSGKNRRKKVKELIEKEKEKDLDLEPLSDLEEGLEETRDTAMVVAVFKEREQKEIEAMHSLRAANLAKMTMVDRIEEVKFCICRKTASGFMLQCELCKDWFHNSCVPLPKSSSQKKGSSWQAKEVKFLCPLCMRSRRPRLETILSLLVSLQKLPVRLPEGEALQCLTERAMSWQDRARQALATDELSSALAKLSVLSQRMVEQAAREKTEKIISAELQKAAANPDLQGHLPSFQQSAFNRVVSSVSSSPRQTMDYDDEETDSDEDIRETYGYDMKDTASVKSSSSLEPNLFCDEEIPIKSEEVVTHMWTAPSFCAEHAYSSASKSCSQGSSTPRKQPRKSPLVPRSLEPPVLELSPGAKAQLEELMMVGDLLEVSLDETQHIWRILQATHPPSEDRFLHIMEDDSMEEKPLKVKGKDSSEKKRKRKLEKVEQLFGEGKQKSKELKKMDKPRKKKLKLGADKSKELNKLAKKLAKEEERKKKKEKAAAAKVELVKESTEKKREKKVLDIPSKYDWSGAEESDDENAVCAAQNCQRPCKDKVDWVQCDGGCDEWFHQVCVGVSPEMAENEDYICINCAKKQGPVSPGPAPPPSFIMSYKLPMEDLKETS

For the compound `CCOC(=O)c1ccnc(-c2ccnn2C)c1`, the IC50 in assay [1] was greater than 100 µM.

In assay [1], `Cn1ccc(-c2cc(C(=O)OCCF)ccn2)n1` returned a 50% inhibitory concentration (IC50) of 1.45 µM.

In turn, `CCOC(=O)c1ccnc(-c2nn(C)cc2-c2cc(OC)cc(OC)c2)c1` yielded an IC50 in assay [1] greater than 100 µM.

The compound `Cn1ccc(-c2cc(C(=O)OCC3CC3)ccn2)n1` returned a 50% inhibitory concentration (IC50) in assay [1] of 3.8 µM.

Consider `CCOC(=O)c1cc(-c2ccn(C)n2)ncc1C(F)(F)F`, for which the IC50 in assay [1] was greater than 100 µM.

In turn, `Cn1ccc(-c2cc(C(=O)OCc3ccccc3)ccn2)n1` yielded an IC50 in assay [1] of 5.69 µM.

Turning to `CCOC(=O)c1ccnc(-c2cc[nH]n2)c1`, in [1], the IC50 is 19.9 µM and the inhibition entry is “Dose-Dependent Effect”. In assay [2], this compound had an inhibition of 76%.

Take `CCOC(=O)c1ccnc(-c2ccn(C(C)C)n2)c1`: the IC50 in [1] was greater than 100 µM.

Regarding `CCOC(=O)c1ccnc(-c2nn(C)cc2-c2ccc(OC)nc2)c1`, in assay [1], half-maximal inhibition (IC50) was put at 24.9 µM.

The compound `CCCOC(=O)c1ccnc(-c2ccn(C)n2)c1` returned an IC50 in [1] of 1.34 µM.

`CCOC(=O)c1ccnc(-c2ccn(CC)n2)c1`: the IC50 in [1] is 2.43 µM.

`COC(=O)c1ccnc(-c2ccn(C)n2)c1` came in with an IC50 in assay [1] of 1.86 µM.

On to `CCOC(=O)c1ccnc(-c2nn(C)cc2-c2ccccc2)c1`, for which the IC50 in assay [1] amounted to 15.2 µM.

Take `CCOC(=O)c1ccnc(-c2nn(C)cc2-c2cccc(N3CCOCC3)c2)c1`: in [1], the midpoint of inhibition, the IC50, lay at 20.4 µM.

In assay [1], `Cn1ccc(-c2cc(C(N)=O)ccn2)n1` yielded an IC50 greater than 100 µM.

`CCOC(=O)c1ccc(-c2ccn(C)n2)nc1`: the IC50 in assay [1] is greater than 100 µM.

Compound `CCOC(=O)c1cc(C)nc(-c2ccn(C)n2)c1` gave an IC50 in assay [1] greater than 100 µM.

Regarding `Cn1ccc(-c2cc(C(=O)OCC(F)F)ccn2)n1`, the IC50 in assay [1] turned out to be 1.12 µM.

In turn, `Cn1ccc(-c2cc(-c3cnn[nH]3)ccn2)n1` registered an IC50 in assay [1] of 12.9 µM.

In assay [1], `CCOC(=O)c1ccnc(-c2nn(C)cc2-c2ccc3occc3c2)c1` registered a half-inhibitory concentration (IC50) greater than 100 µM.

In the case of `CCNC(=O)c1ccnc(-c2ccn(C)n2)c1`, the IC50 in assay [1] was greater than 100 µM.

In [1], `Cn1ccc(-c2cc(C(=O)OCC3CCC3)ccn2)n1` yielded an IC50 of 2.53 µM.

For `CC(C)OC(=O)c1ccnc(-c2ccn(C)n2)c1`, the IC50 in [1] came to 1.94 µM.

Regarding `CCOC(=O)c1ccnc(-c2nn(C)cc2-c2cccc(C)c2)c1`, half-maximal inhibition in [1] (IC50) required 22.9 µM.

In the case of `Cn1ccc(-c2cc(C(=O)OCC(F)(F)F)ccn2)n1`, the IC50 in assay [3] is greater than 100 µM; at RNA demethylase ALKBH5 [5] it was greater than 100 µM; in assay [1], 0.681 µM; in [11] it was greater than 100 µM; in assay [13], greater than 100 µM; in assay [14] it was greater than 100 µM. Moreover, the result (in assay [4]; in [7]; in assay [9]; in assay [10]; on RNA demethylase ALKBH5 [12]) was inactive. In addition, the ΔTm in assay [6] came out at 1.94 °C. The result in [8] was Active.

For `CCOC(=O)c1ccnc(-c2ccn(C)n2)c1`, the IC50 in assay [1] was 0.914 µM.

For `CCOC(=O)c1cc(-c2ccn(C)n2)ncc1F`, 23.1 µM corresponded to half-maximal inhibition in assay [1] (IC50).

In the case of `CCOC(=O)c1ccnc(-c2nn(C)cc2-c2cc3ccccc3c3ccccc23)c1`, the IC50 in assay [1] was greater than 100 µM.

On to `CC(C)COC(=O)c1ccnc(-c2ccn(C)n2)c1`, for which, in assay [1], the IC50 is 11.8 µM.

`Cn1ccc(-c2cc(C(=O)OC3CCCC3)ccn2)n1` yielded an IC50 in [1] of 43.5 µM.

Consider `Cc1cc(O)nc(NN=Cc2ccccc2O)n1`, for which the IC50 in assay [15] came to 0.78 µM.

Compound `CCOC(=O)c1cccc(-c2ccn(C)n2)c1` displayed an IC50 in [1] greater than 100 µM.

As for `CCOC(=O)c1cccnc1-c1ccn(C)n1`, the IC50 in [1] was greater than 100 µM.

In [1], `Cn1ccc(-c2cc(C(=O)O)ccn2)n1` gave an IC50 of 1.71 µM.

Source of the values: ChEMBL document CHEMBL4834445, “Discovery of a new class of JMJD6 inhibitors and structure-activity relationship study” (Bioorg Med Chem Lett, 2021).
